Experimental data: patent US12448377B2, “Heterocyclic compound” (Takeda Pharmaceutical Company Limited, priority 2019, dated 2025)

What follows are compounds tested against T1, human orexin type 2 receptor (Homo sapiens, UniProt O43614) (assay: Measurement of orexin type 2 receptor agonist activity (calcium fluorescence, CHO cells forcibly expressing human OX2 receptor)). Settings: compound at 3 μM, DMSO = 0%, orexin A (human) 10 nM = 100%.
T1 construct: expressed in transfected cells
T1 sequence (O43614 1-444): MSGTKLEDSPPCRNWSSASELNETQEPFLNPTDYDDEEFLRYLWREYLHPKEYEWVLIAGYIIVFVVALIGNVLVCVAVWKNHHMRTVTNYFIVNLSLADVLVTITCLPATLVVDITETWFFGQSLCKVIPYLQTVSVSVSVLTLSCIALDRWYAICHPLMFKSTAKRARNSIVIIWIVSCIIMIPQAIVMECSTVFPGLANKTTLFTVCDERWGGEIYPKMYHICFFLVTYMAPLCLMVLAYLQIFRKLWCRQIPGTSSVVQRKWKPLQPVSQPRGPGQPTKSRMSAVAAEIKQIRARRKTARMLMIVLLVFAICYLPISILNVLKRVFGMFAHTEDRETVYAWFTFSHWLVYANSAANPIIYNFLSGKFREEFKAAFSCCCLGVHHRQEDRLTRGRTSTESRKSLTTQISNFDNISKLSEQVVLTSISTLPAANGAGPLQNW
Type: cell-based
Description: To obtain a cell clone stably expressing human orexin type 2 receptor, human orexin type 2 receptor cDNA was inserted into pcDNA3.1(+) plasmid vector (Invitrogen), and a plasmid DNA for expression of human orexin type 2 receptor (pcDNA3.1(+)/hOX2R) was cloned. The plasmid DNA was introduced into CHO-K1 cell by an electroporation method, and human orexin type 2 receptor-expressing clonal cells were obtained by limiting dilution method using G418 drug resistance as a selection marker.
CHO cells forcibly expressing human OX2 receptor were seeded in each well of 384 well black transparent bottom plate (BD Falcon) at 10,000 cells/well, and cultured for one day in a 5% CO2 incubator at 37° C. After removal of the medium in the cell plate, assay buffer A containing a calcium indicator (HBSS (Thermo Fisher Scientific), 20 mM HEPES (Thermo Fisher Scientific), 0.1% BSA (Sigma-Aldrich), 2.5 μg/mL Fluo-4 AM (DOJINDO Chemical), 0.08% Pluronic F127 (DOJINDO Chemical), 1.25 mM probenecid (DOJINDO Chemical)) was added thereto at 30 μL/well. The plate was stood for 30 min in a 5% CO2 incubator at 37° C., and further stood at room temperature for 30 min. A test compound prepared by diluting with assay buffer B (HBSS, 20 mM HEPES, 0.1% BSA) was added thereto at 10 μL/well, and the fluorescence value was measured by FDSSμCELL (Hamamatsu Photonics K.K.) every one sec for 1 min, and thereafter every two sec for 1 min 40 sec. The activity (%) of the test compound was calculated assuming that variation in the fluorescence value when DMSO was added instead of the test compound was 0%, and variation in the fluorescence value when orexin A (human) (PEPTIDE INSTITUTE, INC.) was added at the final concentration of 10 nM was 100%.

First: CCC1CCC(OCC2C(NS(=O)(=O)N(C)C)CCc3ccc(C)c(=O)n32)CC1 (racemic) [Example 27, rac-N′-[(3S,4R)-4-({[(1s,4S)-4-ethylcyclohexyl]oxy}methyl)-7-methyl-6-oxo-1,3,4,6-tetrahydro-2H-quinolizin-3-yl]-N,N-dimethylsulfuric diamide]
Second: Cc1ccc2n(c1=O)C(COC1CCC(C(C)C)CC1)C(NS(=O)(=O)N(C)C)CC2 (racemic) [Example 28, rac-N,N-dimethyl-N′-[(3S,4R)-7-methyl-6-oxo-4-({[(1s,4S)-4-(propan-2-yl)cyclohexyl]oxy}methyl)-1,3,4,6-tetrahydro-2H-quinolizin-3-yl]sulfuric diamide]
The “OX2R agonist activity (3 μM, %)” value of the first is lower: 85% for the first, 92% for the second.

Compared with `Cc1ccc2n(c1=O)C(COC1CCC(c3ccccc3)CC1)C(NS(=O)(=O)N(C)C)CC2` (racemic) [Example 29, rac-N,N-dimethyl-N′-[(3S,4R)-7-methyl-6-oxo-4-({[(1s,4S)-4-phenylcyclohexyl]oxy}methyl)-1,3,4,6-tetrahydro-2H-quinolizin-3-yl]sulfuric diamide], `Cc1ccccc1C1CCC(OCC2C(NS(=O)(=O)N(C)C)CCc3ccc(C)c(=O)n32)CC1` (racemic) [Example 31, rac-N,N-dimethyl-N′-[(3S,4R)-7-methyl-4-({[(1s,4S)-4-(2-methylphenyl)cyclohexyl]oxy}methyl)-6-oxo-1,3,4,6-tetrahydro-2H-quinolizin-3-yl]sulfuric diamide] is higher in “OX2R agonist activity (3 μM, %)” value: 83% for the first, 89% for the second.

Going from `Cc1ccc2n(c1=O)C(COC1CCC(C(C)(C)C)CC1)C(NS(=O)(=O)N(C)C)CC2` (racemic) [Example 30, rac-N′-[(3S,4R)-4-({[(1s,4S)-4-tert-butylcyclohexyl]oxy}methyl)-7-methyl-6-oxo-1,3,4,6-tetrahydro-2H-quinolizin-3-yl]-N,N-dimethylsulfuric diamide] to `COC(C)(C)C1CCC(OCC2C(NS(C)(=O)=O)CCc3ccc(C)c(=O)n32)CC1` (racemic) [Example 74, rac-N-[(3S,4R)-4-(([(1s,4S)-4-(2-methoxypropan-2-yl)cyclohexyl]oxy)methyl)-7-methyl-6-oxo-1,3,4,6-tetrahydro-2H-quinolizin-3-yl]methanesulfonamide], the “OX2R agonist activity (3 μM, %)” value rises from 94% to 95%.

Going from `Cc1cccc(C2CCC(OCC3C(NS(=O)(=O)N(C)C)CCc4ccc(C)c(=O)n43)CC2)c1` (racemic) [Example 32, rac-N,N-dimethyl-N′-[(3S,4R)-7-methyl-4-({[(1s,4S)-4-(3-methylphenyl)cyclohexyl]oxy}methyl)-6-oxo-1,3,4,6-tetrahydro-2H-quinolizin-3-yl]sulfuric diamide] to `Cc1ccc(C2CCC(OCC3C(NS(=O)(=O)N(C)C)CCc4ccc(C)c(=O)n43)CC2)cc1` (racemic) [Example 35, rac-N,N-dimethyl-N′-[(3S,4R)-7-methyl-4-({[(1s,4S)-4-(4-methylphenyl)cyclohexyl]oxy}methyl)-6-oxo-1,3,4,6-tetrahydro-2H-quinolizin-3-yl]sulfuric diamide], the “OX2R agonist activity (3 μM, %)” value rises from 81% to 88%.

`Cc1ccc(C2CCC(OCC3C(NS(C)(=O)=O)CCc4ccc(C)c(=O)n43)CC2)cc1` (racemic) [Example 33, rac-N-[(3S,4R)-7-methyl-4-({[(1s,4S)-4-(4-methylphenyl)cyclohexyl]oxy}methyl)-6-oxo-1,3,4,6-tetrahydro-2H-quinolizin-3-yl]methanesulfonamide] and `CCS(=O)(=O)NC1CCc2ccc(C)c(=O)n2C1COC1CCC(c2ccc(C)cc2)CC1` (racemic) [Example 34, rac-N-[(3S,4R)-7-methyl-4-({[(1s,4S)-4-(4-methylphenyl)cyclohexyl]oxy}methyl)-6-oxo-1,3,4,6-tetrahydro-2H-quinolizin-3-yl]ethanesulfonamide] are the same in “OX2R agonist activity (3 μM, %)” value: 78% for the first, 78% for the second.

Compared with `Cc1ccc(C2CCC(OCC3C(NS(=O)(=O)C4CC4)CCc4ccc(C)c(=O)n43)CC2)cc1` (racemic) [Example 36, rac-N-[(3S,4R)-7-methyl-4-({[(1s,4S)-4-(4-methylphenyl)cyclohexyl]oxy}methyl)-6-oxo-1,3,4,6-tetrahydro-2H-quinolizin-3-yl]cyclopropanesulfonamide], `Cc1ccc2n(c1=O)C(COC1CCC(c3ccccc3F)CC1)C(NS(=O)(=O)C1CC1)CC2` (racemic) [Example 45, rac-N-[(3S,4R)-4-({[(1s,4S)-4-(2-fluorophenyl)cyclohexyl]oxy}methyl)-7-methyl-6-oxo-1,3,4,6-tetrahydro-2H-quinolizin-3-yl]cyclopropanesulfonamide] is higher in “OX2R agonist activity (3 μM, %)” value: 84% for the first, 95% for the second.

Compared with `Cc1ccc2n(c1=O)C(COC1CCC(C(F)(F)F)CC1)C(NS(C)(=O)=O)CC2` (racemic) [Example 37, rac-N-[(3S,4R)-7-methyl-6-oxo-4-({[(1s,4S)-4-(trifluoromethyl)cyclohexyl]oxy}methyl)-1,3,4,6-tetrahydro-2H-quinolizin-3-yl]methanesulfonamide], `CCS(=O)(=O)NC1CCc2ccc(C)c(=O)n2C1COC1CCC(C(F)(F)F)CC1` (racemic) [Example 38, rac-N-[(3S,4R)-7-methyl-6-oxo-4-({[(1s,4S)-4-(trifluoromethyl)cyclohexyl]oxy}methyl)-1,3,4,6-tetrahydro-2H-quinolizin-3-yl]ethanesulfonamide] is lower in “OX2R agonist activity (3 μM, %)” value: 94% for the first, 88% for the second.

Compared with `Cc1ccc2n(c1=O)C(COC1CCC(c3ccc(F)cc3)CC1)C(NS(C)(=O)=O)CC2` (racemic) [Example 40, rac-N-[(3S,4R)-4-({[(1s,4S)-4-(4-fluorophenyl)cyclohexyl]oxy}methyl)-7-methyl-6-oxo-1,3,4,6-tetrahydro-2H-quinolizin-3-yl]methanesulfonamide], `Cc1ccc2n(c1=O)C(COC1CCC(C(F)F)CC1)C(NS(C)(=O)=O)CC2` (racemic) [Example 55, N-[(3SR,4RS)-4-({[4-(difluoromethyl)cyclohexyl]oxy}methyl)-7-methyl-6-oxo-1,3,4,6-tetrahydro-2H-quinolizin-3-yl]methanesulfonamide] is lower in “OX2R agonist activity (3 μM, %)” value: 89% for the first, 88% for the second.

`CCC1CCC(OCC2C(NS(C)(=O)=O)CCc3c(C)cc(C)c(=O)n32)CC1` (racemic) [Example 48, rac-N-[(3S,4R)-4-({[(1s,4S)-4-ethylcyclohexyl]oxy}methyl)-7,9-dimethyl-6-oxo-1,3,4,6-tetrahydro-2H-quinolizin-3-yl]methanesulfonamide] and `CCC(O)C1CCC(OCC2C(NS(C)(=O)=O)CCc3ccc(C)c(=O)n32)CC1` (racemic) [Example 58, N-[(3SR,4RS)-4-({[4-(1-hydroxypropyl)cyclohexyl]oxy}methyl)-7-methyl-6-oxo-1,3,4,6-tetrahydro-2H-quinolizin-3-yl]methanesulfonamide] are the same in “OX2R agonist activity (3 μM, %)” value: 95% for the first, 95% for the second.

First: COC(C)C1CCC(OCC2C(NS(C)(=O)=O)CCc3ccc(C)c(=O)n32)CC1 (racemic) [Example 56, N-[(3SR,4RS)-4-({[(1s,4S)-4-(1-methoxyethyl)cyclohexyl]oxy}methyl)-7-methyl-6-oxo-1,3,4,6-tetrahydro-2H-quinolizin-3-yl]methanesulfonamide]
Second: Cc1ccc2n(c1=O)C(COC1CCC(OC(C)C)CC1)C(NS(C)(=O)=O)CC2 (racemic) [Example 61, rac-N-{(3S,4R)-7-methyl-6-oxo-4-[({(1s,4S)-4-[(propan-2-yl)oxy]cyclohexyl}oxy)methyl]-1,3,4,6-tetrahydro-2H-quinolizin-3-yl)methanesulfonamide]
The “OX2R agonist activity (3 μM, %)” value of the first is lower: 84% for the first, 103% for the second.

With `CCOC1CCC(OCC2C(NS(C)(=O)=O)CCc3ccc(C)c(=O)n32)CC1` (racemic) [Example 59, rac-N-[(3S,4R)-4-({[(1s,4S)-4-ethoxycyclohexyl]oxy}methyl)-7-methyl-6-oxo-1,3,4,6-tetrahydro-2H-quinolizin-3-yl]methanesulfonamide] the “OX2R agonist activity (3 μM, %)” value was 93%.
